Results published in patent US9073880B2, “2-(2-phenylethenyl) 1,3-benzodiazepine derivatives useful for the treatment of cancer” (Yissum Research Development Company of the Hebrew …, priority 2010, dated 2015).

Key:
[1] = system: human melanoma A375 cells; assay: Cell proliferation, A375 (Example 2); assay type: cell-based; conditions: A-375, 72 hours, 0.1% DMSO, methylene blue
Protocol: (§1) Human ovary cancer A2780 cells lines were seeded at a density of 5000 cells/well, human melanoma A375 cells were plated at a density of 2,500 cells/well, human colon carcinoma HCT15 cells were plated at a density of 3,000 cells/well, human prostate carcinoma PC3 cells were plated at a density of 1,500 cells/well, human breast carcinoma MCF7 cells were plated at a density of 5,000 cells/well, human breast carcinoma MDA MB 468 cells were plated at a density of 6,000 cells/well, human myeloma U266, RPMI8226 and CAG cells were plated at a density of 10,000 cells/well. All cells were plated in 96-well plates in 90 μl growth medium containing 10% FCS, 100 units/ml penicillin and 100 μg/ml streptomycin. Compound 3 was added a day later in […] of 1% DMSO in DDW to obtain final concentrations of 0, 0.1, 0.3, 1, 3, and 10 μM. The final concentration of DMSO (0.1% DMSO) was kept constant in all samples. […] The optical density values were read at 630 nm in ELISA plate reader. Non-adhered cells were exposed to WST-1 reagent for 5 hours following 72 hours treatment with the inhibitors, and optical density values were read at 630 nm in ELISA plate reader. The data was analyzed in Microsoft Excel, using the vehicle control as 100% proliferation. […]

PKB/Akt = assay: IGF1-induced PKB/Akt activation in A375 cells (Example 3); assay type: cell-based, human; conditions: melanoma A375 cells treated 4 hr, 1 and 3 μM; FIG. 4
Protocol: (§2) Tyrosine autophosphorylation of the β-subunit of IGF-1R as well as downstream signaling induced by IGF-1R were assayed in human breast cancer MCF7 cells and in melanoma A375 cells. Cells were seeded in 6-well plates (250,000 A375 cells/well and 300,000 MCF7 cells/well) and 24 hours later medium was replaced by serum-free medium (RPMI supplemented with 100 units/ml penicillin and 100 μg/ml streptomycin). MCF7 cells were exposed for 48 hr to compound 3 at 10 μM concentration, and then stimulated for 5 minutes with 50 ng/ml IGF-1, washed twice with PBS and lysed by boiling sample buffer (10% glycerol, 50 mM Tris-HCl, pH 6.8, 3% SDS, and 5% (3-mercaptoethanol). Equal amounts of protein per lane were separated by 8% SDS-PAGE and transferred to a nitrocellulose membrane (Sartorius AG). Phosphorylated proteins were immunoblotted with anti-phosphoIGF-1R (pIGF-1R), anti-phosphotyrosine-IRS1 (pY-IRS I) and anti-phospho(T308)Akt (pPKB) antibodies. Detection was performed with horseradish peroxidase-conjugated secondary antibody using the ECL system. […]
In addition, lysates of human melanoma A375 cells were prepared from cells exposed to compound 3 at 1 and 3 μM concentrations in serum-free medium. […] In this experiment the phosphorylated form of IRS1 on Serine-636/639 and the levels of IRS2 were detected as well.

IRS1 = IRS1 levels and serine phosphorylation in MCF7 cells (western blot, time course); assay type: cell-based, human; conditions: 10 μM
Protocol: as §2, with “system. Blots were then stripped of antibodies, blocked with TBST with 5% low fat milk and re-probed with antibodies detecting both the phosphorylated and the non-phosphorylated corresponding proteins e.g. IGF-1Rβ, IRS1 and PKB.” for “system.”

[2] = system: human breast carcinoma MDA MB 468 cells; assay: Cell proliferation, MDA MB 468 (Example 2); assay type: cell-based; conditions: MDA-468, breast cancer, 72 hours, 0.1% DMSO
Protocol: as §1

[3] = system: human melanoma A375 cells; assay: Cell death (PARP cleavage) in A375 cells; assay type: cell-based
Protocol: (§3) The effect of compound 5 on IRS1 & IRS2 levels and its effect on IGF1-induced Akt/PKB activation and apoptosis in melanoma A375 cells were tested. Cells were seeded in 6-well plates (150,000 A375 cells/well) and 24 hours later medium was replaced by serum-free medium (RPMI supplemented with 100 units/ml penicillin and 100 μg/ml streptomycin), […], and then stimulated for 5 minutes with 50 ng/ml IGF-1, washed twice with PBS and lysed by boiling sample buffer (10% glycerol, 50 mM Tris-HCl, pH 6.8, 3% SDS, and 5% β-mercaptoethanol). Equal amounts of protein per lane were separated by 8% SDS-PAGE and transferred to a nitrocellulose membrane (Sartorius AG). To detect the inhibition of the Akt/PKB activation, phosphorylated proteins were immunoblotted with anti-phospho(T308)Akt (pT308-PKB) and anti-phospho-Tuberin/TSC2 (pTuberin) antibodies. To visualize cell death induced by compound 5, the intact and the cleaved PARP were immunoblotted with anti-PARP antibody. The changes in the levels of IRS1 and IRS2 were detected with specific antibodies. Detection was performed with horseradish peroxidase-conjugated secondary antibody using the ECL system. Blots were then stripped of antibodies, blocked with TBST with 5% low fat milk and re-probed with antibodies detecting both the phosphorylated and the non-phosphorylated Akt/PKB. […]

IRS1 & IRS2 = assay: IRS1 and IRS2 levels in A375 cells (Example 5); assay type: cell-based, human
Protocol: as §3

Structure (SMILES)	IC50 [1] [nM]	IGF1-induced PKB/Akt activation (PKB/Akt)	levels of IRS1 (IRS1; 48 hr, FIG. 3)	time course of effect on IRS1 phosphorylation and levels (IRS1; various time periods, FIG. 5)	IC50 [2] [nM]	cell death (PARP cleavage) ([3]; 3 μM, 48 hr, FIG. 6A, 6B)	cell death (PARP cleavage) after washout ([3]; 5 μM for 4 hr, 24 hr following washout, FIG. 6C)	IRS1 and IRS2 levels (IRS1 & IRS2; 3 μM, 48 hr, FIG. 6B)	levels of IRS1 & IRS2 after washout (IRS1 & IRS2; 5 μM for 4 hr, washed, 24 hr after washout, FIG. 6C)
O=c1c(O)cc2cnc(/C=C/c3cc(O)c(O)c(Br)c3)sc-2c1O [Compound 3]	1000	inhibition of IGF1-induced PKB/Akt activation	significant decrease	elimination of IRS1 induced by compound 3 is subsequent to IRS1 serine phosphorylation	3800				
O=c1c(O)cc2cnc(/C=C/c3ccc(O)c(O)c3Br)sc-2c1O [Compound 5]						induced cell death (PARP cleavage)	enough to trigger a process which leads to cell death	induced a decrease in IRS1 and IRS2 levels	remained low
